Measured values as given in patent US10525055B2, “Opioid receptor antagonist prodrugs” (Nirsum Laboratories, Inc., priority 2017, dated 2020).
pIC50: −log10 of the molar value.

Assays:
[1] = cited from earlier work
[2] = Plasma stability assay, rat plasma; format: in vitro ADME; conditions: 37° C., 10 μM
KOR = biological target: T1, KOR (Homo sapiens, UniProt P41145); experiment: Opioid receptor binding assay, KOR ([3H]Diprenorphine)
T1 construct: expressed in transfected cells; membranes prepared from them

MOR = biological target: T2, MOR (Homo sapiens, UniProt P35372); experiment: Opioid receptor binding assay, MOR ([3H]DAMGO)
T2 construct: expressed in transfected cells; membranes prepared from them

[3] = Solubility determination in oil (cottonseed oil, sesame oil); conditions: Sesame oil; heating temp. 40 °C, obs. temp. 40 °C
Method: A known amount of test substance (˜40 mg) was weighed into the vial, 100 μL of oil was added and heated to 60° C. and then system was slurried to reach equilibrium. […] Extra oil was added into the vial once compound precipitated out and then the system was re-equilibrated at 1000 rpm at room temperature (25° C.). Final concentration was determined by HPLC method as described below in Table 6a and 6b.

[4] = Equilibrium solubility in water; conditions: heating temp. 40 °C, obs. temp. 40 °C
[5] = Polymorph screening of solid state drug substances; conditions: for XRPD results (Dried): stirred 50 °C 72 hours, solids dried; for Visual observation 50° C. / Visual observation RT: target conc. 100 mg/ml

T2 sequence (P35372 whole entry): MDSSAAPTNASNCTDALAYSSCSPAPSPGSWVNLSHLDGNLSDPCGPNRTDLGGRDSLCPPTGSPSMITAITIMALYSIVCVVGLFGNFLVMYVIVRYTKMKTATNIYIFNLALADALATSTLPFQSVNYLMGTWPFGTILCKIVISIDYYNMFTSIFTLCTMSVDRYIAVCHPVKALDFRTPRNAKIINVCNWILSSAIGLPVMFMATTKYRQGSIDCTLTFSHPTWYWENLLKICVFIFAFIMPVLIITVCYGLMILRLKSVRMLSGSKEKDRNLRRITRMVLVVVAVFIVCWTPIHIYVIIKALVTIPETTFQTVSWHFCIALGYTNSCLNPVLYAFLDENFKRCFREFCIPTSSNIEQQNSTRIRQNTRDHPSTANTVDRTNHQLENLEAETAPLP
T1 sequence (P41145 whole entry): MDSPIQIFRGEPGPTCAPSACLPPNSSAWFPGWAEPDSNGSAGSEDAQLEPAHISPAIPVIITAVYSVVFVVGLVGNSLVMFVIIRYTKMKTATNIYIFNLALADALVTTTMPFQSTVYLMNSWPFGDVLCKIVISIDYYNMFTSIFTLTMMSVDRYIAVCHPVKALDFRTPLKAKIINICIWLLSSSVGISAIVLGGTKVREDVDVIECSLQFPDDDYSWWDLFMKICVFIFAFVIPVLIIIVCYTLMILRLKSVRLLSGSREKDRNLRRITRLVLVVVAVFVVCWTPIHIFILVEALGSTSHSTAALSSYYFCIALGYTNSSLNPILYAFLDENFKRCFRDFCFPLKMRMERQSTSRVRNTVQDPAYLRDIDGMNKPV

SMILES: O=C1CC[C@@]2(O)[C@H]3Cc4ccc(O)c5c4[C@@]2(CCN3CC2CC2)[C@H]1O5 [naltrexone, 17-(cyclopropylmethyl)-4,5α-epoxy-3,14-dihydroxymorphinan-6-one, reference compound]
- time of peak plasma levels after oral dosing [1]: one

SMILES: C=C1CC[C@@]2(O)C3Cc4ccc(OC(=O)CCCCCCCCCCCCCCCCCCCCC)c5c4[C@@]2(CCN3CC2CC2)[C@H]1O5 [Compound 14, (4aS,7aS,12bS)-3-(cyclopropylmethyl)-4a-hydroxy-7-methylene-2,3,4,4a,5,6,7,7a-octahydro-1H-4,12-methanobenzofuro[3,2-e]isoquinolin-9-yl docosanoate]
- % remaining at time point in minutes, 0 min ([2]; 0 min): 100%
- % remaining at time point in minutes, 15 min ([2]; 15 min): 94%
- % remaining at time point in minutes, 120 min ([2]; 120 min): 112%
- % remaining at time point in minutes, 480 min ([2]; 480 min): 107%
- % remaining at time point in minutes, 1440 min ([2]; 1440 min): 120%
- pIC50 (KOR): 5.75
- %Inh@MaxDose (KOR; KOR, MaxDose 10000 nM): 68.1%
- pIC50 (MOR): 7.90
- %Inh@MaxDose (MOR; MOR, MaxDose 10000 nM): 92.7%
- Approximate Solubility (mg/mL) in Excipient: Sesame oil [3]: <51 mg/mL
- Equilibrium solubility (mg/mL) Water [4]: 0.0056 mg/mL
- XRPD results (Dried) ([5]; Acetone): Pattern A
- Visual observation 50° C. ([5]; Acetone): Clear
- Visual observation RT ([5]; Acetone): Slimy
- XRPD results (Dried) ([5]; EtOAc): Pattern A
- Visual observation 50° C. ([5]; EtOAc): Clear
- Visual observation RT ([5]; EtOAc): Slurry
- XRPD results (Dried) ([5]; Heptane): Pattern B
- Visual observation 50° C. ([5]; Heptane): Slurry
- Visual observation RT ([5]; Heptane): Slurry
- XRPD results (Dried) ([5]; Isopropanol): Pattern A
- Visual observation 50° C. ([5]; Isopropanol): Clear
- Visual observation RT ([5]; Isopropanol): Clear
- XRPD results (Dried) ([5]; MTBE): Pattern A
- Visual observation 50° C. ([5]; MTBE): Clear
- Visual observation RT ([5]; MTBE): Clear

SMILES: Oc1ccc2c3c1O[C@H]1[C@H](O)CC[C@@]4(O)[C@@H](C2)N(CC2CC2)CC[C@]314 [6-β-naltrexol]
- time of peak plasma levels after oral dosing [1]: one
- mean elimination half-life ([1]; oral): thirteen
